Assay: pH of water solution
Format: physicochemical
Settings: not given

Row | Molecule | pH of water solution
1 | CCCCCCCC(=O)O.CCOC(=O)[C@@H](N)Cc1ccc(O)c(O)c1 [Example 19, LDEE Octanoate] | 6.0-6.5
2 | CCO.CCOC(=O)[C@@H](N)Cc1ccc(O)c(O)c1.CCOC(=O)[C@@H](N)Cc1ccc(O)c(O)c1.O=C(O)CCCCC(=O)O [Example 21, LDEE Adipate Ethanolate] | 6
3 | CCO.CCOC(=O)[C@@H](N)Cc1ccc(O)c(O)c1.CCOC(=O)[C@@H](N)Cc1ccc(O)c(O)c1.O=C(O)CCC(=O)O [Example 22, LDEE Succinate Ethanolate] | 6
4 | CCO.CCOC(=O)[C@@H](N)Cc1ccc(O)c(O)c1.O=C(O)/C=C\C(=O)O [Example 28, LDEE Maleate Ethanolate] | 6.4
5 | LDEE Phenylbutyrate [Example 10] | 5.5-6.0

Assay: Hygroscopicity test: weight gain of solid sample in humidity chamber at RH=80%
Format: physicochemical
Settings: RH = 80%
Description: There are many methods of quantitative evaluation of hygroscopicity of solid products without measuring the hygroscopic point. The most widely used method is based on measuring the weight gain of a solid sample in a humidity chamber. […] This method was used for screening the hygroscopicity of several LDEE salts. It also provides a comparison of the hygroscopic properties of different solids by comparison of water absorption rates under the same conditions.

Row | Molecule | Color stability at RH = 80% [h] | Mean water absorption rate at RH = 80% [mol/kg/h] | water absorption at RH=80% (in words)
6 | CCOC(=O)C(N)Cc1ccc(O)c(O)c1.O=C(O)C(O)C(O)C(=O)O (mixture of isomers) [Example 7, LDEE (LD)Tartrate] | 20 | 0.146 | –
7 | CCOC(=O)[C@@H](N)Cc1ccc(O)c(O)c1.O=C(O)C(O)C(O)C(=O)O [Example 4, LDEE L(+)Tartrate] | 15 | 0.164 | –
8 | CCOC(=O)[C@@H](N)Cc1ccc(O)c(O)c1.O=C(O)C(O)C(O)C(=O)O [Example 5, LDEE Hydrogen L(+)Tartrate] | 19 | 0.23 | –
9 | CCOC(=O)[C@@H](N)Cc1ccc(O)c(O)c1.O=C(O)C(O)C(O)C(=O)O [Example 6, LDEE D(−)Tartrate] | 20 | 0.155 | –
10 | CCOC(=O)[C@@H](N)Cc1ccc(O)c(O)c1.O=C(O)c1ccccc1 [Example 8, LDEE Benzoate] | 4.5 | 0.09 | –
11 | CCOC(=O)[C@@H](N)Cc1ccc(O)c(O)c1.O=P(O)(O)O [Example 11, LDEE Phosphate] | 15 | 0.147 | –
12 | CCCCCCCC(=O)O.CCOC(=O)[C@@H](N)Cc1ccc(O)c(O)c1 [Example 19, LDEE Octanoate] | >48 | 0.005 | did not absorb water
13 | CCO.CCOC(=O)[C@@H](N)Cc1ccc(O)c(O)c1.CCOC(=O)[C@@H](N)Cc1ccc(O)c(O)c1.O=C(O)CCCCC(=O)O [Example 21, LDEE Adipate Ethanolate] | >24 | 0.121 | –
14 | CCO.CCOC(=O)[C@@H](N)Cc1ccc(O)c(O)c1.CCOC(=O)[C@@H](N)Cc1ccc(O)c(O)c1.O=C(O)CCC(=O)O [Example 22, LDEE Succinate Ethanolate] | >24 | 0.067 | –
15 | CCO.CCOC(=O)[C@@H](N)Cc1ccc(O)c(O)c1.O=C(O)/C=C\C(=O)O [Example 28, LDEE Maleate Ethanolate] | 3 | 0.07 | –
16 | LDEE Phenylbutyrate [Example 10] | 1.0 | 0.023 | –

Same assay, conditions: RH = 80%, 24 hrs

Row | Molecule | Material appearance after 24 hrs at RH = 80% | Weight gain during 24 hrs at RH = 80%,% [%]
17 | CCOC(=O)C(N)Cc1ccc(O)c(O)c1.O=C(O)C(O)C(O)C(=O)O (mixture of isomers) [Example 7, LDEE (LD)Tartrate] | Syrup | 6.3
18 | CCOC(=O)[C@@H](N)Cc1ccc(O)c(O)c1.O=C(O)C(O)C(O)C(=O)O [Example 4, LDEE L(+)Tartrate] | Syrup | 7.1
19 | CCOC(=O)[C@@H](N)Cc1ccc(O)c(O)c1.O=C(O)C(O)C(O)C(=O)O [Example 5, LDEE Hydrogen L(+)Tartrate] | Syrup | 10.1
20 | CCOC(=O)[C@@H](N)Cc1ccc(O)c(O)c1.O=C(O)C(O)C(O)C(=O)O [Example 6, LDEE D(−)Tartrate] | – | 6.7
21 | CCOC(=O)[C@@H](N)Cc1ccc(O)c(O)c1.O=C(O)c1ccccc1 [Example 8, LDEE Benzoate] | Semi-solid melt | 4.1
22 | CCOC(=O)[C@@H](N)Cc1ccc(O)c(O)c1.O=P(O)(O)O [Example 11, LDEE Phosphate] | Semi-solid melt | 6.4
23 | CCCCCCCC(=O)O.CCOC(=O)[C@@H](N)Cc1ccc(O)c(O)c1 [Example 19, LDEE Octanoate] | White flowable powder | 0.22
24 | CCO.CCOC(=O)[C@@H](N)Cc1ccc(O)c(O)c1.CCOC(=O)[C@@H](N)Cc1ccc(O)c(O)c1.O=C(O)CCCCC(=O)O [Example 21, LDEE Adipate Ethanolate] | Semi-solid melt | 5.25
25 | CCO.CCOC(=O)[C@@H](N)Cc1ccc(O)c(O)c1.CCOC(=O)[C@@H](N)Cc1ccc(O)c(O)c1.O=C(O)CCC(=O)O [Example 22, LDEE Succinate Ethanolate] | Semi-solid melt | 2.9
26 | CCO.CCOC(=O)[C@@H](N)Cc1ccc(O)c(O)c1.O=C(O)/C=C\C(=O)O [Example 28, LDEE Maleate Ethanolate] | Yellowish syrup | 3.1
27 | LDEE Phenylbutyrate [Example 10] | Semi-solid melt | 1.0

Same assay, conditions: RH=80% screening

Row | Molecule | hygroscopicity (in words)
28 | CCOC(=O)C(N)Cc1ccc(O)c(O)c1.O=C(O)C(O)C(O)C(=O)O (mixture of isomers) [Example 7, LDEE (LD)Tartrate] | hygroscopic
29 | CCOC(=O)[C@@H](N)Cc1ccc(O)c(O)c1.O=C(O)C(O)C(O)C(=O)O [Example 4, LDEE L(+)Tartrate] | hygroscopic
30 | CCOC(=O)[C@@H](N)Cc1ccc(O)c(O)c1.O=C(O)C(O)C(O)C(=O)O [Example 5, LDEE Hydrogen L(+)Tartrate] | hygroscopic
31 | CCOC(=O)[C@@H](N)Cc1ccc(O)c(O)c1.O=C(O)c1ccccc1 [Example 8, LDEE Benzoate] | hygroscopic
32 | CCCCCCCC(=O)O.CCOC(=O)[C@@H](N)Cc1ccc(O)c(O)c1 [Example 19, LDEE Octanoate] | non-hygroscopic
33 | CCO.CCOC(=O)[C@@H](N)Cc1ccc(O)c(O)c1.CCOC(=O)[C@@H](N)Cc1ccc(O)c(O)c1.O=C(O)CCCCC(=O)O [Example 21, LDEE Adipate Ethanolate] | hygroscopic
34 | CCO.CCOC(=O)[C@@H](N)Cc1ccc(O)c(O)c1.CCOC(=O)[C@@H](N)Cc1ccc(O)c(O)c1.O=C(O)CCC(=O)O [Example 22, LDEE Succinate Ethanolate] | hygroscopic
35 | CCO.CCOC(=O)[C@@H](N)Cc1ccc(O)c(O)c1.O=C(O)/C=C\C(=O)O [Example 28, LDEE Maleate Ethanolate] | hygroscopic
36 | LDEE Phenylbutyrate [Example 10] | hygroscopic

Same assay, conditions: RH=80%, T=20±2° C., during 8 hrs

Row | Molecule | weight gain in hygroscopicity test [%]
37 | CCO.CCOC(=O)[C@@H](N)Cc1ccc(O)c(O)c1.CCOC(=O)[C@@H](N)Cc1ccc(O)c(O)c1.O=C(O)CCC(=O)O [Example 22, LDEE Succinate Ethanolate] | 4.3

Same assay, conditions: RH=80%, T=20±2° C., during 24 hrs

Row | Molecule | weight gain in hygroscopicity test [%]
38 | CCOC(=O)C(N)Cc1ccc(O)c(O)c1.O=C(O)C(O)C(O)C(=O)O (mixture of isomers) [Example 7, LDEE (LD)Tartrate] | 6.3
39 | CCOC(=O)[C@@H](N)Cc1ccc(O)c(O)c1.O=C(O)C(O)C(O)C(=O)O [Example 4, LDEE L(+)Tartrate] | 7.1
40 | CCOC(=O)[C@@H](N)Cc1ccc(O)c(O)c1.O=C(O)C(O)C(O)C(=O)O [Example 5, LDEE Hydrogen L(+)Tartrate] | 10.1
41 | CCOC(=O)[C@@H](N)Cc1ccc(O)c(O)c1.O=C(O)C(O)C(O)C(=O)O [Example 6, LDEE D(−)Tartrate] | 6.7
42 | CCOC(=O)[C@@H](N)Cc1ccc(O)c(O)c1.O=C(O)c1ccccc1 [Example 8, LDEE Benzoate] | 4.1
43 | CCOC(=O)[C@@H](N)Cc1ccc(O)c(O)c1.O=P(O)(O)O [Example 11, LDEE Phosphate] | 6.4
44 | CCCCCCCC(=O)O.CCOC(=O)[C@@H](N)Cc1ccc(O)c(O)c1 [Example 19, LDEE Octanoate] | 0.22
45 | CCO.CCOC(=O)[C@@H](N)Cc1ccc(O)c(O)c1.CCOC(=O)[C@@H](N)Cc1ccc(O)c(O)c1.O=C(O)CCCCC(=O)O [Example 21, LDEE Adipate Ethanolate] | 5.25
46 | CCO.CCOC(=O)[C@@H](N)Cc1ccc(O)c(O)c1.O=C(O)/C=C\C(=O)O [Example 28, LDEE Maleate Ethanolate] | 3.1
47 | LDEE Phenylbutyrate [Example 10] | 1.03

Same assay, conditions: RH=80%, about 48 hrs

Row | Molecule | appearance after exposure in a humidity chamber
48 | CCCCCCCC(=O)O.CCOC(=O)[C@@H](N)Cc1ccc(O)c(O)c1 [Example 19, LDEE Octanoate] | white flowable powder

Assay: pKa and delta pKa (pKa LDEE − pKa acid)
Format: physicochemical
Settings: not given
Description: Preparation and selection of salts that have different physical properties are detailed in the literature. […]. PKa of LDEE free base is known to be 7.24 [8]. […]. This fact is illustrated in Example 1 below, in which the crystallization of LDEE palmitate was attempted. After dissolution of LDEE base and palmitic acid in absolute alcohol, the solution was cooled, and instead of forming a new salt, pure palmitic acid was crystallized out, and no solid crystalline salt was formed. […]

Row | Molecule | delta pKa pKaLDEE − pKaacid (first value) | delta pKa pKaLDEE − pKaacid (second value) | delta pKa pKaLDEE − pKaacid (third value)
49 | CCOC(=O)C(N)Cc1ccc(O)c(O)c1.O=C(O)C(O)C(O)C(=O)O (mixture of isomers) [Example 7, LDEE (LD)Tartrate] | 4.26 | 2.90 | –
50 | CCOC(=O)[C@@H](N)Cc1ccc(O)c(O)c1.O=C(O)C(O)C(O)C(=O)O [Example 4, LDEE L(+)Tartrate] | 4.26 | 2.90 | –
51 | CCOC(=O)[C@@H](N)Cc1ccc(O)c(O)c1.O=C(O)C(O)C(O)C(=O)O [Example 5, LDEE Hydrogen L(+)Tartrate] | 4.26 | 2.90 | –
52 | CCOC(=O)[C@@H](N)Cc1ccc(O)c(O)c1.O=C(O)c1ccccc1 [Example 8, LDEE Benzoate] | 3.03 | – | –
53 | CCOC(=O)[C@@H](N)Cc1ccc(O)c(O)c1.O=P(O)(O)O [Example 11, LDEE Phosphate] | 5.09 | 0.04 | −4.6
54 | CCCCCCCC(=O)O.CCOC(=O)[C@@H](N)Cc1ccc(O)c(O)c1 [Example 19, LDEE Octanoate] | 2.35 | – | –
55 | CCO.CCOC(=O)[C@@H](N)Cc1ccc(O)c(O)c1.CCOC(=O)[C@@H](N)Cc1ccc(O)c(O)c1.O=C(O)CCCCC(=O)O [Example 21, LDEE Adipate Ethanolate] | 2.81 | 1.83 | –
56 | CCO.CCOC(=O)[C@@H](N)Cc1ccc(O)c(O)c1.CCOC(=O)[C@@H](N)Cc1ccc(O)c(O)c1.O=C(O)CCC(=O)O [Example 22, LDEE Succinate Ethanolate] | 3.08 | 1.63 | –
57 | CCO.CCOC(=O)[C@@H](N)Cc1ccc(O)c(O)c1.O=C(O)/C=C\C(=O)O [Example 28, LDEE Maleate Ethanolate] | 5.35 | 1.02 | –
58 | LDEE Phenylbutyrate [Example 10] | 2.48 | – | –

Same assay, conditions: first pKa of the acid

Row | Molecule | delta pKa pKaLDEE − pKaacid (first value)
59 | CCOC(=O)[C@@H](N)Cc1ccc(O)c(O)c1.O=C(O)C(O)C(O)C(=O)O [Example 6, LDEE D(−)Tartrate] | 4.26

Source: patent publication US6696600B2, “L-DOPA ethyl ester salts and uses thereof” (priority 2001, dated 2004)
